This is an account of results in paper PMC7618104, “The GLP-1 analogue, exendin-4, improves bone material properties and strength through a central relay in ovariectomized mice” (American journal of physiology. Endocrinology and metabolism, 2025).

The subject of assay [1] is ovariectomized BALB/c mice. Briefly: 3-point bending of femur (whole-bone strength), ovariectomy-induced bone fragility model. The assay is classed as in vivo, mouse (BALB/cJRj, female). Particulars: 28 days, n=8. The method, then:
(§1) Eight animals were randomly assigned to each group.
All animals received intraperitoneal administration of calcein green (10 mg/kg) 10 days and 2 days before sacrifice. Animals were housed in social groups and maintained in a 12 h:12 h light/dark cycle. They had free access to water and food. At necropsy, blood was collected by intracardiac aspiration into EDTA-treated tubes. Blood samples were centrifuged at 13,000 g for 15 min, aliquoted and stored at -80°C until plasma levels of exendin-4 (#EK-070-94, Phoenix pharmaceuticals, Burlingame, CA) and calcitonin (NBP3-06734, Bio-Techne Ltd, Abingdon, UK) were measured according to the manufacturer’s protocol. Plasma levels of the bone remodeling markers C-terminal telopeptide of collagen type I (CTx-I – RatLaps, Immunodiagnostic Systems Ltd, Boldon, UK) and N-terminal propeptide of type I collagen (P1NP - Rat/mouse P1NP, Immunodiagnostic Systems Ltd) were measured according to the manufacturers’ recommendation. Right femurs were wrapped in saline-soaked gauze and frozen at -20°C until use. Right tibiae were fixed in ethanol-based fixative and stored at 4°C until use. No specific inclusion or exclusion criteria were applied for animal selection. […] Additionally, correct implantation of the cerebral perfusion cannulas for icv-administered animals was verified at necropsy. All animals meeting these criteria were included in the study.
The whole-bone strength of right femurs was assessed by 3-point bending in accordance with published guidelines ([34]). Three-point bending strength was measured with a constant span length of 10 mm. Bones were tested in the antero-posterior axis with the posterior surface facing upward, centered on the support and the pressing force was applied vertically to the midshaft of the bone. Each bone was tested fully hydrated and at room temperature with a loading speed of 2 mm.min^-1 until failure with a 500 N load cell on an Instron 5942 device (Instron, Elancourt, France) and the load-displacement curve was recorded at a 100 Hz rate by the Bluehill 3 software (Instron). Ultimate load, ultimate displacement, stiffness and work to fracture were calculated as indicated in ([34]). The yield point was determined as the point at which a regression line that represents a 10% loss in stiffness crosses the load-displacement curve. Post-yield displacement was computed as the displacement between yielding and fracture. Peak bending moment was calculated as one-half the ultimate load multiplied by one-half the span length ([34]). The peak bending moment is related to bone tissue material properties and bone midshaft geometry by the following equation: M=σb×IML/cAP

Assay [2] relates to ovariectomized BALB/c mice. Put plainly: microCT cortical bone microstructure, midshaft femur. The format is in vivo, mouse (BALB/cJRj, female). The note with it: 28 days, OVX, n=8. The protocol: as §1
All animals received intraperitoneal administration of calcein green (10 mg/kg) 10 days and 2 days before sacrifice. Animals were housed in social groups and maintained in a 12 h:12 h light/dark cycle. They had free access to water and food. At necropsy, blood was collected by intracardiac aspiration into EDTA-treated tubes. Blood samples were centrifuged at 13,000 g for 15 min, aliquoted and stored at -80°C until plasma levels of exendin-4 (#EK-070-94, Phoenix pharmaceuticals, Burlingame, CA) and calcitonin (NBP3-06734, Bio-Techne Ltd, Abingdon, UK) were measured according to the manufacturer’s protocol. Plasma levels of the bone remodeling markers C-terminal telopeptide of collagen type I (CTx-I – RatLaps, Immunodiagnostic Systems Ltd, Boldon, UK) and N-terminal propeptide of type I collagen (P1NP - Rat/mouse P1NP, Immunodiagnostic Systems Ltd) were measured according to the manufacturers’ recommendation. Right femurs were wrapped in saline-soaked gauze and frozen at -20°C until use. […]
MicroCT analyses were performed at the proximal metaphysis of the right tibia and at the mid-diaphysis of the right femur with a Bruker 1272 microtomograph operated at 70 kV, 140 μA, 1000 ms integration time and imaging in ethanol 70. […] The region analyzed (0.5 mm) was centered at the midpoint between the third trochanter and the distal growth plate. […]

The test system of assay [3] is mouse bone marrow-derived mesenchymal stem cell (BMMSC) cultures. Briefly: Bone marrow-derived mesenchymal stem cell osteogenic differentiation. The note with it: 1 nM exendin-4, osteogenic medium, n = 5 independent experiments. The format is cell-based, mouse (BALB/cJRj). The protocol: Femurs and tibias were isolated from 12-week-old female BALB/c mice (BALB/cJRj; Janvier Labs, Saint-Berthevin, France). Bones were rapidly dissected and cleared of soft tissue. The distal epiphyses were removed, and the marrow cavities were flushed with sterile PBS to collect bone marrow cells. Cells were suspended in growth medium composed of α-MEM supplemented with 10% fetal bovine serum, 100 U/mL penicillin-streptomycin, and 0.25 μL/mL Fungizone (Thermo Fisher Scientific), and seeded into 6-well plates at a density of 2.5 × 10^6 cells/well. Cultures were maintained at 37°C in a humidified incubator with 5% CO2. Cells remained undisturbed for 5 days to promote adherence. […]
On day 14, cells were washed with PBS and subjected to three freeze-thaw cycles. […] Enzymatic activity was measured using the fluorescent substrate 4-methylumbelliferyl phosphate (Sigma-Aldrich) as previously described ([38]).
On day 21, cells were fixed with 3.7% (w/v) formaldehyde in PBS for 10 min, rinsed with PBS, and stained with 1.5% (w/v) Alizarin Red S for 5 min. […] Bound dye was extracted using 10% acetic acid, neutralized with 10% ammonium hydroxide, and absorbance was measured at 550 nm using a spectrophotometer. […]

For assay [4], the system named is animal models of bone fragility. The note with it: subcutaneous, OVX model; cited from earlier work. The text has this:
These observations formed the basis for investigating the potential utility of a GLP-1r agonist for the management of bone fragility. Ex-4 has already been administered subcutaneously in preclinical models of bone fragility, including the OVX model used in the present study. Previous studies have reported positive effects of Ex-4 that increased bone mineral density, trabecular microstructure and circulating calcitonin leve ...

The mark [5] stands for this setting: icv Ex-4 70 pmol/day, vs OVX+vehicle, p<0.001.

Regarding exendin-4 [Ex-4], the increase in energy-to-fracture in assay [1] (setting [5]) amounted to 8%; in assay [1] (s.c. Ex-4 ~700 pmol/day, vs OVX+vehicle, p=0.020) it was 24%. The “increase in post-yield displacement” value is 8% in assay [1] (setting [5]) and 18% in assay [1] (s.c. Ex-4 ~700 pmol/day, vs OVX+vehicle, p=0.025). In assay [1] (icv Ex-4 70 pmol/day, vs OVX+vehicle, p=0.010), the “increase in ultimate load” value is reported as 7%. For the same substance, the ultimate load result in assay [1] (s.c. Ex-4 ~700 pmol/day, OVX, p=0.817) is listed as “did not prevent the impact of ovariectomy on ultimate load”. Moreover, in assay [1] (s.c. Ex-4 ~700 pmol/day, OVX, p=0.984), the stiffness entry is listed as “did not prevent the impact of ovariectomy”. Moreover, the cortical bone microstructure result in assay [2] (icv Ex-4 70 pmol/day) is given as “unable to demonstrate significant changes in cortical bone microstructure”; in assay [2] (s.c. Ex-4 ~700 pmol/day) it was “did not alter cortical bone microstructure”. In addition, the “alkaline phosphatase (ALP) activity” value in assay [3] (day 14) is given as “did not result in any significant increase”. Besides, in assay [3] (day 21), the “extracellular matrix mineralization (Alizarin Red S)” value is “did not result in any significant increase”. Also, the “bone mineral density, trabecular microstructure, calcitonin, osteoclast parameters, bone strength” value in assay [4] is “increased bone mineral density, trabecular microstructure and circulating calcitonin levels and reduced osteoclast parameters, resulting in greater bone strength”.
